Data taken from US20160130278A1 (TAISHO PHARMACEUTICAL CO., LTD, priority 2013, published 2016).
pIC50: −log10 of the molar value.

The compounds below were run against T1, human type 1 glycine transporter (GlyT1) (Homo sapiens, UniProt P48067) (assay: Glycine uptake inhibition experiment ([3H]glycine uptake)). Conditions: GlyT1.
T1 construct: T98G cells (glioma cells) expressing human type 1 glycine transporter (GlyT1) were used
T1 sequence (P48067 1-706): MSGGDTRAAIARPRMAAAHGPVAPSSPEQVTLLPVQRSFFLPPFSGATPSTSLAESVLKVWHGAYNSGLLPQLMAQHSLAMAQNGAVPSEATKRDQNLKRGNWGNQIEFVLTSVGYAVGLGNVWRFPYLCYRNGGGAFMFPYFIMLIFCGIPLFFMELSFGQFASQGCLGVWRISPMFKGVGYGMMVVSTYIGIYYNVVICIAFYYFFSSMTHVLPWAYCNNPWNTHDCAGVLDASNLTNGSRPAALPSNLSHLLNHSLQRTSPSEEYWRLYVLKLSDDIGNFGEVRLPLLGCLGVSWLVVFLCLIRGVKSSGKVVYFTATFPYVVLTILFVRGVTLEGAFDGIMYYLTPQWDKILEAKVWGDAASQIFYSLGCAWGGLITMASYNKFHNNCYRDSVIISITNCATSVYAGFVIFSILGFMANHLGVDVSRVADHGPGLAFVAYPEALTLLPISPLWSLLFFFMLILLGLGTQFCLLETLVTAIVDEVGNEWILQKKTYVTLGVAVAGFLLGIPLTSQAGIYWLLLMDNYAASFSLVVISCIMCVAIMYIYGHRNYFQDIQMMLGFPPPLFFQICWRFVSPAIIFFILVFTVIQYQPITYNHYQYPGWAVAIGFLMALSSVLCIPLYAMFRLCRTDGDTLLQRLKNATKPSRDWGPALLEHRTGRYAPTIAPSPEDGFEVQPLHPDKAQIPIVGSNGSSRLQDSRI
Type: cell-based
Outline: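 T98G glioma cells expressing human GlyT1 were pretreated 10 min with compound in HEPES buffer pH 7.4 (0.2% BSA), then incubated with compound plus 250 nM final [3H]glycine for 15 min at room temperature. Intracellular radioactivity was counted after NaOH lysis; 10 μM ALX5407 defined non-specific uptake. IC50 came from 10^−9–10^−5 M curves.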

How did the pIC50 turn out when `COc1cccc(Cl)c1C(=O)NC(c1cccc(F)c1Cl)[C@]1(O)CC[C@@H](F)CC1` (single isomer, unassigned) [Compound 300, 2-chloro-N-[(2-chloro-3-fluorophenyl)(cis-4-fluoro-1-hydroxycyclohexyl)methyl]-6-methoxybenzamide] was run?
The pIC50 was 5.92.

How did the pIC50 turn out when `O=C(NC(c1cccc(Cl)c1)[C@]1(O)CC[C@@H](F)CC1)c1ccnc(C(F)(F)F)c1Cl` (stereo partly drawn) [Compound 163, 3-chloro-N-[(3-chlorophenyl)(cis-4-fluoro-1-hydoxycyclohexyl)methyl]-2-(trifluoromethyl)pyridine-4-carboxamide] was run?
The pIC50 was 6.41.

With `Cc1ccccc1C(NC(=O)c1nccc(C(F)(F)F)c1Cl)C1(O)CCCC1` (stereo not shown) [Compound 47, 3-chloro-N-[(1-hydroxycyclopentyl)(2-methylphenyl)methyl]-4-(trifluoromethyl)pyridine-2-carboxamide] as the compound, how does the pIC50 read?
Its pIC50 is 6.55.

With `O=C(NC(c1cccc(Cl)c1F)C1(O)CCC(F)CC1)c1nccc(C(F)(F)F)c1Cl` (single isomer, unassigned) [Compound 200, 3-chloro-N-[(3-chloro-2-fluorophenyl)(4-fluoro-1-hydroxycyclohexyl)methyl}-4-(trifluoromethyl)pyridine-2-carboxamide] as the compound, how does the pIC50 read?
Its pIC50 is 7.19.

How did the pIC50 turn out when `O=C(NC(c1cccc(Cl)c1Cl)C1(O)CCCC1)c1nccc(C(F)(F)F)c1Cl` (single isomer, unassigned) [Compound 116, 3-chloro-N-[(2,3-dichlorophenyl)(1-hydroxycyclopentyl)methyl]-4-(trifluoromethyl)pyridine-2-carboxamide] was run?
The pIC50 was 5.22.

With `O=C(NC(c1cccc(F)c1Cl)[C@]1(O)CC[C@@H](F)CC1)c1nccc(C(F)(F)F)c1Cl` (single isomer, unassigned) [Compound 213, 3-chloro-N-[(2-chloro-3-fluorophenyl)(cis-4-fluoro-1-hydroxycyclohexyl)methyl]-4-(trifluoromethyl)pyridine-2-carboxamide] as the compound, how does the pIC50 read?
The pIC50 was 7.43.

How did the pIC50 turn out when `O=C(NC(c1cccc(OC(F)(F)F)c1)C1(O)CCCC1)c1nccc(C(F)(F)F)c1Cl` (stereo not shown) [Compound 84, 3-chloro-N-{(1-hydroxycyclopentyl)[3-(trifluoromethoxy)phenyl]methyl}-4-(trifluoromethyl)pyridine-2-carboxamide] was run?
Its pIC50 is 5.59.

How did the pIC50 turn out when `O=C(NC(c1cc(F)cc(Cl)c1)C1(O)CCCC1)c1nccc(C(F)(F)F)c1Cl` (stereo not shown) [Compound 88, 3-chloro-N-[(3-chloro-5-fluroophenyl)(1-hydroxycyclopentyl)methyl]-4-(trifluoromethyl)pyridine-2-carboxamide] was run?
The pIC50 was 6.74.

How did the pIC50 turn out when `O=C(NC(c1cccc(F)c1)C1(O)CCC1)c1nccc(C(F)(F)F)c1Cl` (stereo not shown) [Compound 62, 3-chloro-N-[(3-fluorophenyl)(1-hydroxycyclobutyl)methyl]-4-(trifluoromethyl)pyridine-2-carboxamide] was run?
The pIC50 was 5.68.

With `O=C(N[C@@H](c1cccc(Br)c1)C1(O)CCCC1)c1nccc(C(F)(F)F)c1Cl` [Compound 33, N-[(S)-(3-bromophenyl)(1-hydroxycyclopentyl)methyl]-3-chloro-4-(trifluoromethyl)pyridine-2-carboxamide] as the compound, how does the pIC50 read?
The pIC50 was 7.09.

How did the pIC50 turn out when `O=C(NC(c1cccc(Cl)c1F)C1(O)CCC(F)(F)CC1)c1ccnc(C(F)(F)F)c1Cl` (single isomer, unassigned) [Compound 169, 3-chloro-N-[(3-chloro-2-fluorophenyl)(4,4-difluoro-1-hydroxycyclohexyl)methyl]-2-(trifluoromethyl)pyridine-4-carboxamide] was run?
The pIC50 was 7.02.

`O=C(NC(c1cccc(Cl)n1)[C@]1(O)CC[C@@H](F)CC1)c1ccc(C(F)(F)F)cc1Cl` (single isomer, unassigned) [Compound 363, 2-chloro-N-[(6-chloropyridin-2-yl)(cis-4-fluoro-1-hydroxycyclohexyl)methyl]-4-(trifluoromethyl)benzamide] was tested. Which pIC50 did it give?
Its pIC50 is 6.62.

`O=C(NC(c1ccccc1F)C1(O)CCC(F)(F)CC1)c1nccc(C(F)(F)F)c1Cl` (single isomer, unassigned) [Compound 237] was tested. Which pIC50 did it give?
The pIC50 was 6.60.

How did the pIC50 turn out when `O=C(NC(c1cccc(F)c1Cl)[C@]1(O)CC[C@@H](F)CC1)c1nccc(C(F)(F)F)c1Cl` (single isomer, unassigned) [Compound 214, 3-chloro-N-[(2-chloro-3-fluorophenyl)(cis-4-fluoro-1-hydroxycyclohexyl)methyl]-4-(trifluoromethyl)pyridine-2-carboxamide] was run?
The pIC50 was 6.35.

How did the pIC50 turn out when `O=C(NC(c1cccc(F)c1Cl)[C@]1(O)CC[C@@H](F)CC1)c1cccc(F)c1Cl` (single isomer, unassigned) [Compound 288, 2-chloro-N-[(2-chloro-3-fluorophenyl)(cis-4-fluoro-1-hydroxycyclohexyl)methyl]-3-fluorobenzamide] was run?
Its pIC50 is 6.00.

`O=C(NC(c1cccc(-c2cnccn2)c1)C1(O)CCC(F)(F)CC1)c1nccc(C(F)(F)F)c1Cl` (stereo not shown) [Compound 159, 3-chloro-N-{(4,4-difluoro-1-hydroxycyclohexyl)[3-(pyrazin-2-yl)phenyl]methyl}-4-(trifluoromethyl)pyridine-2-carboxamide] was tested. Which pIC50 did it give?
Its pIC50 is 6.49.

With `O=C(NC(c1cccc(F)c1Cl)[C@]1(O)CC[C@@H](F)CC1)c1ccc(Cl)nc1-n1nccn1` (single isomer, unassigned) [Compound 370, 6-chloro-N-[(2-chloro-3-fluorophenyl)(cis-4-fluoro-1-hydroxycyclohexyl)methyl]-2-(2H-1,2,3-triazol-2-yl)pyridine-3-carboxamide] as the compound, how does the pIC50 read?
Its pIC50 is 5.52.

With `O=C(NC(c1cccc(Cl)c1)C1(O)CCC(F)(F)CC1)c1nccc(C(F)(F)F)c1Cl` (single isomer, unassigned) [Compound 166, 3-chloro-N-[(3-chlorophenyl)(4,4-difluoro-1-hydroxycyclohexyl)methyl]-4-(trifluoromethyl)pyridine-2-carboxamide] as the compound, how does the pIC50 read?
The pIC50 was 6.74.

How did the pIC50 turn out when `O=C(NC(c1cccc(Br)c1)C1(O)CC=CCC1)c1nccc(C(F)(F)F)c1Cl` (stereo not shown) [Compound 142, N-[(3-bromophenyl)(1-hydroxycyclohex-3-en-1-yl)methyl]-3-chloro-4-(trifluoromethyl)pyridine-2-carboxamide] was run?
The pIC50 was 6.39.

How did the pIC50 turn out when `CCn1cc(-c2cccc(C(NC(=O)c3cccc(C(F)(F)F)c3Cl)C3(O)CCC(F)(F)CC3)c2)cn1` (single isomer, unassigned) [Compound 122, 2-chloro-N-{(4,4-difluoro-1-hydroxycyclohexyl)[3-(1-ethyl-1H-pyrazol-4-yl)phenyl]methyl}-3-(trifluoromethyl)benzamide] was run?
Its pIC50 is 6.66.

With `Cc1ccc(C(NC(=O)c2nccc(C(F)(F)F)c2Cl)C2(O)CCCC2)cc1` (stereo not shown) [Compound 49, 3-chloro-N-[(1-hydroxycyclopentyl)(4-methylphenyl)methyl]-4-(trifluoromethyl)pyridine-2-carboxamide] as the compound, how does the pIC50 read?
The pIC50 was 5.42.

`O=C(NC(c1cccc(Cl)n1)C1(O)CCCCC1)c1ccnc(C(F)(F)F)c1Cl` (single isomer, unassigned) [Compound 385, 3-chloro-N-[(6-chloropyridin-2-yl)(1-hydroxycyclohexyl)methyl]-2-(trifluoromethyl)pyridine-4-carboxamide] was tested. Which pIC50 did it give?
Its pIC50 is 7.59.

How did the pIC50 turn out when `O=C(NC(c1cccc(F)c1Cl)[C@]1(O)CC[C@@H](F)CC1)c1ccccc1-n1cnnn1` (single isomer, unassigned) [Compound 270, N-[(2-chloro-3-fluorophenyl)(cis-4-fluoro-1-hydroxycyclohexyl)methyl]-2-(1H-tetrazol-1-yl)benzamide] was run?
The pIC50 was 5.62.

`CCn1cc(-c2cccc(C(NC(=O)c3c(C)cccc3C)C3(O)CCC(F)(F)CC3)c2)cn1` (stereo not shown) [Compound 120, N{(4,4-difluoro-1-hydroxycyclohexyl)[3-(1-ethyl-1H-pyrazol-4-yl)phenyl]methyl}-2,6-dimethylbenzamide] was tested. Which pIC50 did it give?
The pIC50 was 6.13.

`Cc1cccc(C(NC(=O)c2nccc(C(F)(F)F)c2Cl)C2(O)CCCC2)c1` (stereo not shown) [Compound 48, 3-chloro-N-[(1-hydroxycyclopentyl)(3-methylphenyl)methyl]-4-(trifluoromethyl)pyridine-2-carboxamide] was tested. Which pIC50 did it give?
Its pIC50 is 6.17.

`O=C(NC(c1ccccc1)[C@]1(O)CC[C@@H](F)CC1)c1nccc(C(F)(F)F)c1Cl` (single isomer, unassigned) [Compound 238, 3-chloro-N-[(cis-4-fluoro-1-hydroxycyclohexyl)(phenyl)methyl]-4-(trifluoromethyl)pyridine-2-carboxamide] was tested. Which pIC50 did it give?
Its pIC50 is 6.66.

`CS(=O)(=O)c1ccc(C(F)(F)F)cc1C(=O)NC(c1ccccc1Cl)C1(O)CCC(F)(F)CC1` (single isomer, unassigned) [Compound 395, N-[(2-chlorophenyl)(4,4-difluoro-1-hydroxycyclohexyl)methyl]-2-(methylsulfonyl)-5-(trifluoromethyl)benzamide] was tested. Which pIC50 did it give?
The pIC50 was 6.48.

Same assay, conditions: human GlyT1

How did the pIC50 turn out when `O=C(NC(c1cccc(Cl)n1)C1(O)CCCC1)c1nccc(C(F)(F)F)c1Cl` (single isomer, unassigned) [Compound 397, 3-chloro-N-[(6-chloropyridin-2-yl)(1-hydroxycyclopentyl)methyl]-4-(trifluoromethyl)pyridine-2-carboxamide] was run?
The pIC50 was 7.80.
